From patent US20120022054A1, “NOVEL SUBSTITUTED ARYL DERIVATIVES, THEIR PROCESS OF PREPARATION AND THEIR THERAPEUTICAL USES AS ANTI-HIV AGENTS” (priority 2008, published 2012) come the findings set out here.

The structures appear in SMILES notation.

Assay [1] concerns Env-deleted NL4-3 vector virus pseudotyped with the VSV g envelope. Kind of assay: microbe, parasite or virus in culture. It counts as cell-based, HIV-1. Conditions: Vesicular stomatitis virus, NL43, SUP-T1, 48 h, read-out: EC50 for antiviral activity (50% inhibition of luciferase activity).
The test system of the next assay is NL4-3 strain of HIV-1. Kind of assay: Multiple cycle infection assay of CAp24 antigen production. Type of assay: cell-based. Conditions: Human immunodeficiency virus 1, NL43, SUP-T1, 96 h, multiple cycle infection with NL4-3 virus, SupT1, MT4 or PBMC, MOI 0.01, day 4 and day −6 post-infection; threshold below 5 μM; read-out: EC50 for antiviral activity (50% inhibition of CA p24 production).

Broadly, the EC50 is the midpoint of the concentration-response curve. Take `COc1ccc(-n2cccn2)c(CN(C)C(=O)CCCSc2ccc(F)cc2)c1` [Example 98, 4-[(4-fluorophenyl)thio]-N-[5-methoxy-2-(pyrazol-1-yl)benzyl]-N-methylbutanamide]: the EC50 (in assay [1]; with NL4-3 strain of HIV-1) was below 5 µM throughout.
As to `C=CCOc1ccc(Cl)cc1CN(C)C(=O)CCCSc1ccc(F)cc1` [Example 101, N-[2-(allyloxy)-5-chlorobenzyl]-4-[(4-fluorophenyl)thio]-N-methylbutanamide], the 50% effective concentration (EC50) (in assay [1]; with NL4-3 strain of HIV-1) was below 5 µM in each case.
As for `COc1ccc(F)cc1N(C)C(=O)CCCSc1ccc(F)cc1` [Example 102, N-(5-fluoro-2-methoxyphenyl)-4-[(4-fluorophenyl)thio]-N-methylbutanamide], the EC50 (in assay [1]; with NL4-3 strain of HIV-1) was below 5 µM throughout.
Consider `COc1ccc2c(ccn2CCCC(=O)N(C)Cc2cc(F)ccc2OC)c1` [Example 109, N-(5-fluoro-2-methoxybenzyl)-4-(5-methoxy-1H-indol-1-yl)-N-methylbutanamide], for which the EC50 (in assay [1]; with NL4-3 strain of HIV-1) was below 5 µM each time.
In the case of `COc1ccc(F)cc1CN(C)C(=O)CCCSc1ccc(C)cc1` [Example 111, N-(5-fluoro-2-methoxybenzyl)-N-methyl-4-[(4-methylphenyl)thio]butanamide], the concentration giving a half-maximal response (EC50) (in assay [1]; in the assay with NL4-3 strain of HIV-1) was below 5 µM in each case.
For `COc1ccc(F)cc1CN(C)C(=O)CCCSc1ccc(Cl)cc1` [Example 112, 4-[(4-chlorophenyl)thio]-N-(5-fluoro-2-methoxybenzyl)-N-methylbutanamide], the EC50 (in assay [1]; in the assay with NL4-3 strain of HIV-1) was below 5 µM in each case.
On to `COc1ccc(SCCCC(=O)N(C)Cc2cc(Cl)ccc2OC)cc1` [Example 115, N-(5-chloro-2-methoxybenzyl)-4-[(4-methoxyphenyl)thio]-N-methylbutanamide], for which the EC50 (in assay [1]; with NL4-3 strain of HIV-1) was below 5 µM throughout.
Turning to `COc1ccc(SCCCC(=O)N(C)Cc2cc(F)ccc2OC(C)C)cc1` [Example 117, N-(5-fluoro-2-isopropoxybenzyl)-4-[(4-methoxyphenyl)thio]-N-methylbutanamide], the 50% effective concentration (EC50) (in assay [1]; in the assay on NL4-3 strain of HIV-1) was below 5 µM throughout.
With `COc1ccc(SCCCC(=O)N(C)Cc2cc(C)ccc2OC)cc1` [Example 119, 4-[(4-methoxyphenyl)thio]-N-[2-methoxy-5-methylbenzyl]-N-methylbutanamide], the half-maximal effective concentration (EC50) (in assay [1]; in the assay on NL4-3 strain of HIV-1) was below 5 µM each time.
In the case of `COc1ccc(C)cc1CN(C)C(=O)CCCn1ccc2ccc(F)cc21` [Example 121, 4-(6-fluoro-1H-indol-1-yl)-N-(2-methoxy-5-methylbenzyl)-N-methylbutanamide], the EC50 (in assay [1]; in the assay on NL4-3 strain of HIV-1) was below 5 µM in each case.
As for `CN(Cc1ccccc1-c1ccco1)C(=O)CCCn1ccc2cc(F)ccc21` [Example 122, 4-(5-fluoro-1H-indol-1-yl)-N-(2-(furan-2-yl)benzyl)-N-methylbutanamide], the EC50 (in assay [1]; in the assay with NL4-3 strain of HIV-1) was below 5 µM in each case.
With `COc1ccc(SCCCC(=O)N(C)Cc2cc(C)ccc2N2CCOCC2)cc1` [Example 124, 4-[(4-methoxyphenyl)thio]-N-[5-methyl-2-(morpholin-4-yl)benzyl]-N-methylbutanamide], the concentration for a half-maximal effect (EC50) (in assay [1]; in the assay on NL4-3 strain of HIV-1) was below 5 µM in each case.
In the case of `COc1ccccc1N(C)C(=O)CCCSc1ccc(F)cc1` [Example 126, 4-[(4-Fluorophenyl)thio]-N-(2-methoxyphenyl)-N-methylbutanamide], the EC50 (in assay [1]; with NL4-3 strain of HIV-1) was below 5 µM each time.
`CN(C(=O)CCCSc1ccc(F)cc1)c1cccc2cnccc12` [Example 131, 4-[(4-fluorophenyl)thio]-N-isoquinolin-5-yl-N-methylbutanamide]: the EC50 (in assay [1]; with NL4-3 strain of HIV-1) was below 5 µM in each case.
Consider `COc1ccc([S+]([O-])CCCC(=O)N(C)c2nccc3ccccc23)cc1` (stereo not drawn) [Example 133, N-isoquinolin-1-yl-4-[(4-methoxyphenyl)sulfinyl]-N-methylbutanamide], for which the EC50 (in assay [1]; in the assay with NL4-3 strain of HIV-1) was below 5 µM in each case.
